According to ChEMBL document CHEMBL5291721, “A preclinical secondary pharmacology resource illuminates target-adverse drug reaction associations of marketed drugs” (Nat Commun, 2023):

What was measured:
[1] = molecular target: D(1A) dopamine receptor (Homo sapiens, UniProt P21728)
[2] = molecular target: Gamma-aminobutyric acid receptor subunit alpha-1 (Rattus norvegicus, UniProt P62813)
[3] = molecular target: T1, Alpha-2A adrenergic receptor (Homo sapiens, UniProt P08913)
T1 sequence (P08913 whole entry): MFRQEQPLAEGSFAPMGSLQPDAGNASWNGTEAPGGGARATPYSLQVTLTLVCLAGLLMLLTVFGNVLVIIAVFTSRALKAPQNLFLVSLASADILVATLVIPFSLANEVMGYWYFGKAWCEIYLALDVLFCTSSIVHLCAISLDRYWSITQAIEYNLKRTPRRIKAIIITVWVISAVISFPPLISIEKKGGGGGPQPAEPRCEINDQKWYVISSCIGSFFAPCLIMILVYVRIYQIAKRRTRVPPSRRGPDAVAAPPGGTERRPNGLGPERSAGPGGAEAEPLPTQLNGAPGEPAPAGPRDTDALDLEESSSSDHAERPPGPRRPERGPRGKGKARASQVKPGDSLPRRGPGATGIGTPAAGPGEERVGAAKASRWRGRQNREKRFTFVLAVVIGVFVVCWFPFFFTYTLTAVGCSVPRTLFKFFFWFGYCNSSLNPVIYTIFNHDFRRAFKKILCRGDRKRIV

[4] = molecular target: T2, Adenosine receptor A1 (Homo sapiens, UniProt P30542)
T2 sequence (P30542 whole entry): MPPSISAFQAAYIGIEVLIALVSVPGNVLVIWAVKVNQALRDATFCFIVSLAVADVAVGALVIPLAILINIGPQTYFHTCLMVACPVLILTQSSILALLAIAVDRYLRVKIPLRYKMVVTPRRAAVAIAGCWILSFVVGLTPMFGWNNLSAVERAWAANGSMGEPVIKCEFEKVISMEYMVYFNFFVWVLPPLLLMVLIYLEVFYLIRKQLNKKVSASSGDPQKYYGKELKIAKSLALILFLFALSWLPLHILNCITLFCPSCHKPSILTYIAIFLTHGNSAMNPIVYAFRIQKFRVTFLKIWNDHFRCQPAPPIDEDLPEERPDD

[5] = molecular target: T3, 5-hydroxytryptamine receptor 1A (Homo sapiens, UniProt P08908)
T3 sequence (P08908 whole entry): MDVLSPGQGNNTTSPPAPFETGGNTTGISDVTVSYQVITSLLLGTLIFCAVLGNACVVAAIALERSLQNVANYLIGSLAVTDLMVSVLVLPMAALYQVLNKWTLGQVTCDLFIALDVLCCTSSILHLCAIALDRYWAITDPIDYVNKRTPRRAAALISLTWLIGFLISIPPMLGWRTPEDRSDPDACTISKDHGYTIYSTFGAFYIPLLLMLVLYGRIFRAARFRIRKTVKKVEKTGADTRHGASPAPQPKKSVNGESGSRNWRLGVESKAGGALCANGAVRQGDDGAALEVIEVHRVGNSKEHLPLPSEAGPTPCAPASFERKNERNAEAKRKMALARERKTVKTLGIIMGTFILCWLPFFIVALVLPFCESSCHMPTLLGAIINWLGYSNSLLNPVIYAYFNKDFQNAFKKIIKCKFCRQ

[6] = molecular target: T4, Alpha-1A adrenergic receptor (Homo sapiens, UniProt P35348); assay type: functional, cell-based
T4 sequence (P35348 whole entry): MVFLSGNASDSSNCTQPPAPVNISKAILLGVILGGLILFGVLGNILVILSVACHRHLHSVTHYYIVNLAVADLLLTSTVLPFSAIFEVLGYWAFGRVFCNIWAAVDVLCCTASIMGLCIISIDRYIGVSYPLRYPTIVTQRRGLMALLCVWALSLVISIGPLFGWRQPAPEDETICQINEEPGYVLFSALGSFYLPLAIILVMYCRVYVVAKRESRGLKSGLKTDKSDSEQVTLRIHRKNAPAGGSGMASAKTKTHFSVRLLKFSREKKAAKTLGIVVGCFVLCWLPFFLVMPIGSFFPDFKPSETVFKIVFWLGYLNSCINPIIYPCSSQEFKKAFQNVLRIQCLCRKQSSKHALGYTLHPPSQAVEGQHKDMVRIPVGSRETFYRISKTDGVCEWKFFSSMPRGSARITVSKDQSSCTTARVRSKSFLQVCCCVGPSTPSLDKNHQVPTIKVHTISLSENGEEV

[7] = molecular target: Gamma-aminobutyric acid receptor subunit alpha-1/alpha-2/beta-2/gamma-2 (Homo sapiens, UniProt P14867+P18507+P47869+P47870); assay type: protein-complex assay
Gamma-aminobutyric acid receptor subunit alpha-1/alpha-2/beta-2/gamma-2, sequence (P14867 whole entry): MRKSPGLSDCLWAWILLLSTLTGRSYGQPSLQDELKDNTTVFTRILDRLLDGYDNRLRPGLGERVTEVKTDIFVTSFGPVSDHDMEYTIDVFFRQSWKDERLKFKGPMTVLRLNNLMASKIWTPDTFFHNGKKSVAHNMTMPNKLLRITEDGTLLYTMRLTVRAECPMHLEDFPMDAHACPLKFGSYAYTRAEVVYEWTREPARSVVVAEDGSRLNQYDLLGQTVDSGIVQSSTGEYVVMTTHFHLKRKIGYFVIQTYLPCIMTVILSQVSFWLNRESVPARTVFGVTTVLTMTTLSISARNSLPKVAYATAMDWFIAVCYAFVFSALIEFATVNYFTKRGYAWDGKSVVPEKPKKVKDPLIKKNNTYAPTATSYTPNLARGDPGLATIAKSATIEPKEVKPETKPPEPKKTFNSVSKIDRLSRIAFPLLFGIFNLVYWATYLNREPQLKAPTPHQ
Gamma-aminobutyric acid receptor subunit alpha-1/alpha-2/beta-2/gamma-2, sequence (P47870 whole entry): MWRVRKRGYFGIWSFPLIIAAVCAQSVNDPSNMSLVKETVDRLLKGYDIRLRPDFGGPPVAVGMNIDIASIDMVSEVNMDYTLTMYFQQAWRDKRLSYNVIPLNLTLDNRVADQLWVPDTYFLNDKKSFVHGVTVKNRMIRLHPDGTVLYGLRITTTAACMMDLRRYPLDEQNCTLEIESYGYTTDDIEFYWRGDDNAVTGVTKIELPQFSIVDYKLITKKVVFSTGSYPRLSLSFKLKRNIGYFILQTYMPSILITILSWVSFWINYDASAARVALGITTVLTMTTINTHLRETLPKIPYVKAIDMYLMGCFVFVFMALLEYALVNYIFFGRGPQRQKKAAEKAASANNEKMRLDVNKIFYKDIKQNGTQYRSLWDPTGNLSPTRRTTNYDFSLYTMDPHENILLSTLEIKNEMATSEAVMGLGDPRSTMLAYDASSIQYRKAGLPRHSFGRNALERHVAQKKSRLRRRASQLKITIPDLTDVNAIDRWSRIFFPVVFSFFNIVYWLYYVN
Gamma-aminobutyric acid receptor subunit alpha-1/alpha-2/beta-2/gamma-2, sequence (P18507 whole entry): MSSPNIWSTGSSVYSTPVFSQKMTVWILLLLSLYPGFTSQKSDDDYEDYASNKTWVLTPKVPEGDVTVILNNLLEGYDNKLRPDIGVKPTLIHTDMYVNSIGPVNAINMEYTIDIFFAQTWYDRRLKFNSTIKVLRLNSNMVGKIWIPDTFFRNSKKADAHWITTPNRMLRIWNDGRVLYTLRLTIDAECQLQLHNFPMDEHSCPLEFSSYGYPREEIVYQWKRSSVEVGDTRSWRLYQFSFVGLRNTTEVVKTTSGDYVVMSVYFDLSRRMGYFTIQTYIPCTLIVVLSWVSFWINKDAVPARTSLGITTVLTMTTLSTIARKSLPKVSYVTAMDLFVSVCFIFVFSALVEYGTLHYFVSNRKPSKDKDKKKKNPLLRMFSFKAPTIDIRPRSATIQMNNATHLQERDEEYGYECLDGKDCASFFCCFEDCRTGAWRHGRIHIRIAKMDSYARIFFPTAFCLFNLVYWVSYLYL
Gamma-aminobutyric acid receptor subunit alpha-1/alpha-2/beta-2/gamma-2, sequence (P47869 whole entry): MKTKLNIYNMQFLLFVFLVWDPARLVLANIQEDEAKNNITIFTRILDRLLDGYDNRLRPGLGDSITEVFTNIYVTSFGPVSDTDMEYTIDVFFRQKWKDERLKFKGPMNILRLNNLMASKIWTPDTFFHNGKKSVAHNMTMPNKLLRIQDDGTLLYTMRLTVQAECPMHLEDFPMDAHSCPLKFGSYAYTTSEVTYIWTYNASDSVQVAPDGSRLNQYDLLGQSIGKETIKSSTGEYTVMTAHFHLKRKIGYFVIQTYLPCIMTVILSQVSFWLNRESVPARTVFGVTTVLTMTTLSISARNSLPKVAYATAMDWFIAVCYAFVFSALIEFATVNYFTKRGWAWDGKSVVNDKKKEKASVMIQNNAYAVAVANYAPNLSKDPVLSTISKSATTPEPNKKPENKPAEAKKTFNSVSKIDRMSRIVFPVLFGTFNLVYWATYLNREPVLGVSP

[8] = molecular target: T5, Androgen receptor (Homo sapiens, UniProt P10275)
T5 sequence (P10275 whole entry): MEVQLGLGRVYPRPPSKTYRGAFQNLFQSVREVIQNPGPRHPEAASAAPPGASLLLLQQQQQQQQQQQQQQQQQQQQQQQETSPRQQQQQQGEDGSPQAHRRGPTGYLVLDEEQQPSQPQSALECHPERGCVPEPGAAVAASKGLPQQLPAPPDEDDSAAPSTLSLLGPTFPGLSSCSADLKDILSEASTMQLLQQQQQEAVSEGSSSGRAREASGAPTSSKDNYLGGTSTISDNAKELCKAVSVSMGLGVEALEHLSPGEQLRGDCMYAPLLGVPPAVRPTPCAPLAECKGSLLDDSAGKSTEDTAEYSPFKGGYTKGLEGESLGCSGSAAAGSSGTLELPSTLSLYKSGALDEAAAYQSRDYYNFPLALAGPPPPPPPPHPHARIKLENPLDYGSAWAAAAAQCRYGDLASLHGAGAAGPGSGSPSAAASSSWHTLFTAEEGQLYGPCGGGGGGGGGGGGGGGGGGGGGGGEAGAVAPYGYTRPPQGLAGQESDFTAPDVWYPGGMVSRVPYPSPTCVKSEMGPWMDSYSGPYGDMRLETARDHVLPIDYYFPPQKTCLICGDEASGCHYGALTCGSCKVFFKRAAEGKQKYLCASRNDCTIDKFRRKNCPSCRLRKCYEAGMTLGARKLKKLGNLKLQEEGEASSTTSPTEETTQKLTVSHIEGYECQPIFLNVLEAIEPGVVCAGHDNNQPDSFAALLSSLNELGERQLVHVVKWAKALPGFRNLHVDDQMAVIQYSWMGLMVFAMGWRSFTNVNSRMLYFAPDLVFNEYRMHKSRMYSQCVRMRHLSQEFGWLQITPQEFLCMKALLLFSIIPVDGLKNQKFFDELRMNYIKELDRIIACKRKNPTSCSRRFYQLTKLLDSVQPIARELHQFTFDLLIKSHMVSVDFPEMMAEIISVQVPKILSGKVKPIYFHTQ

[9] = molecular target: Glutamate receptor ionotropic, NMDA 1 (Rattus norvegicus, UniProt P35439)
[10] = molecular target: cGMP-inhibited 3',5'-cyclic phosphodiesterase 3A (Homo sapiens, UniProt Q14432); assay type: functional
cGMP-inhibited 3',5'-cyclic phosphodiesterase 3A, sequence (Q14432 whole entry): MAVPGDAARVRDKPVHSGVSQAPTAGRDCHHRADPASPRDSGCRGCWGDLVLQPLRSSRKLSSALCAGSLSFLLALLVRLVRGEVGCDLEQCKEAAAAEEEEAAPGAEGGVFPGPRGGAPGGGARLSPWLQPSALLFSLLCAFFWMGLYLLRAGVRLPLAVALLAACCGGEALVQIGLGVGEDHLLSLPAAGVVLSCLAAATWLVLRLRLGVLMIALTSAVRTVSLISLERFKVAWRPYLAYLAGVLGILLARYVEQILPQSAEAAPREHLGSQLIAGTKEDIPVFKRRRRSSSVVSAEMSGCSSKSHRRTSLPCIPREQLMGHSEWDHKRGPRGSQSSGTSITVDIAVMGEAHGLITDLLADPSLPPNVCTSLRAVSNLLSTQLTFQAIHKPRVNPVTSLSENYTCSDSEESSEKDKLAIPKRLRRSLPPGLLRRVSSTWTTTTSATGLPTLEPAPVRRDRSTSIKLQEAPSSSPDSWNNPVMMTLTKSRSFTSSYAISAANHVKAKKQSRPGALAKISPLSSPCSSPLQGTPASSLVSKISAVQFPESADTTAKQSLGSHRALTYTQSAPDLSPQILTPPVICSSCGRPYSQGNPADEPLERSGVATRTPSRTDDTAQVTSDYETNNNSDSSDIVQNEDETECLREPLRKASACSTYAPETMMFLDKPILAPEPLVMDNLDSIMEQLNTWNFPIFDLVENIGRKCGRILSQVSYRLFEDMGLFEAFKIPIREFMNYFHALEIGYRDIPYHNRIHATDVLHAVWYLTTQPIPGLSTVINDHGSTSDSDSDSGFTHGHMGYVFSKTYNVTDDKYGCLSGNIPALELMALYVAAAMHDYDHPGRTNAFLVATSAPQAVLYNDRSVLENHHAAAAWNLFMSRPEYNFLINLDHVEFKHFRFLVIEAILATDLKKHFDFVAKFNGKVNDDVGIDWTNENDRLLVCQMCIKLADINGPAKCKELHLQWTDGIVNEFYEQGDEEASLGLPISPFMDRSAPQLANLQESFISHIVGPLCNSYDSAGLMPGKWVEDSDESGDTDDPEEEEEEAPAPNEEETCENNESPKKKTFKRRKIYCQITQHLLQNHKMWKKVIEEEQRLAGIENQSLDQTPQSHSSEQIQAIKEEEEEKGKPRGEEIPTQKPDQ
Further: assay procedure not described here.

D(1A) dopamine receptor, sequence (P21728 whole entry): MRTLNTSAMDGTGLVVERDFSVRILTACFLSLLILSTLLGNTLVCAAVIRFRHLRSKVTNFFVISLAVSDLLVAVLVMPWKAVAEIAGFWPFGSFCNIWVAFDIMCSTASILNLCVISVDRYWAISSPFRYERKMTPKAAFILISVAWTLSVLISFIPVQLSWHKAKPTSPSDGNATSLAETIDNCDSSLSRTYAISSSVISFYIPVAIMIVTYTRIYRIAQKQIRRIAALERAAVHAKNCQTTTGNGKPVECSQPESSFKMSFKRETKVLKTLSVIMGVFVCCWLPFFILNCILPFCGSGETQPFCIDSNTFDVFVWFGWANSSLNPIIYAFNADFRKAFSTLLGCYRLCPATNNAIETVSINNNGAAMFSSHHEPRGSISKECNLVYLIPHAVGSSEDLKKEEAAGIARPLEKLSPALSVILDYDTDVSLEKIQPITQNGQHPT
Gamma-aminobutyric acid receptor subunit alpha-1, sequence (P62813 whole entry): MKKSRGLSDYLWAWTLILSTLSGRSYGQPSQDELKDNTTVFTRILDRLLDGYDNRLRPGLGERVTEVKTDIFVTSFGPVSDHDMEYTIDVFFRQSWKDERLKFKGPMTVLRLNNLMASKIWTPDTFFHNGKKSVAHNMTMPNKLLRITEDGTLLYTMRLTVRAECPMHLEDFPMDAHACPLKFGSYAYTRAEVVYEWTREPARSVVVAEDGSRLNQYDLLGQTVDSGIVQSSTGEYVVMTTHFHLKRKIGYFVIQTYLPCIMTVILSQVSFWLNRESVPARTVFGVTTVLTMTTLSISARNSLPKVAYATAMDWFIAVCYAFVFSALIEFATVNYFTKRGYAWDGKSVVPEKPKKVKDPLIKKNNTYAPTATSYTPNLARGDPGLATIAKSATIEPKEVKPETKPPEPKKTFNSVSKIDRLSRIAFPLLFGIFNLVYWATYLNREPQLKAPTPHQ

Compound	AC50 [1]	AC50 [2]	AC50 [3]	AC50 [4]	AC50 [5]	AC50 [6]	AC50 [7]	AC50 [8]	AC50 [9]	AC50 [10]
CCC(CC)(CC(=O)Nc1cccc(/C=C/c2nc(C3CCC3)cs2)c1)C(=O)O	> 30 µM	> 30 µM	> 30 µM	> 30 µM	> 30 µM	> 10 µM				
Nc1ccncc1N [AMIFAMPRIDINE]	> 30 µM	> 30 µM	> 30 µM	> 30 µM	> 30 µM	> 30 µM	> 30 µM			
CC(=O)OCC1=C(C(=O)O)N2C(=O)[C@@H](NC(=O)[C@H](N)c3ccccc3)[C@H]2SC1 [CEPHALOGLYCIN]	> 30 µM	> 30 µM	> 30 µM	> 30 µM	> 30 µM	> 30 µM		> 30 µM		
CN1CCN(C2=Nc3ccccc3Sc3ccc(Cl)cc32)CC1 [CLOTHIAPINE]	0.0061 µM	> 30 µM	3.47 µM	> 30 µM	12.1 µM	> 10 µM		> 30 µM	> 30 µM	> 30 µM
CC[C@H]1CN2CCc3cc(OC)c(OC)cc3[C@@H]2C[C@@H]1C[C@H]1NCCc2cc(OC)c(OC)cc21 [EMETINE]	15.7 µM	> 30 µM	0.09 µM	> 30 µM	22.7 µM				> 30 µM	> 30 µM
Clc1cc(Cl)c(OCC#CI)cc1Cl [HALOPROGIN]		> 30 µM	17.7 µM	15.4 µM	> 30 µM	> 30 µM				
O=[N+]([O-])O[C@@H]1CO[C@H]2[C@@H]1OC[C@@H]2O [ISOSORBIDE MONONITRATE]	> 30 µM	> 30 µM	> 30 µM	> 30 µM	> 30 µM	> 30 µM			> 10 µM	> 30 µM
Cc1cc(C)c(NC(=O)CN(CC(=O)O)CC(=O)O)c(C)c1Br [MEBROFENIN]	> 30 µM	> 30 µM	> 30 µM	> 30 µM	> 30 µM				> 30 µM	> 30 µM
COc1ccccc1N1CCN(CC(O)COc2cccc3ccccc23)CC1 (centres undefined) [NAFTOPIDIL]	2.08 µM	> 30 µM	0.29 µM	> 30 µM	0.0086 µM				> 30 µM	> 30 µM
CC(C)(C)C(=O)OCOC(=O)[C@@H]1N2C(=O)[C@@H](NC(=O)[C@H](N)c3ccccc3)[C@H]2SC1(C)C [PIVAMPICILLIN]	> 30 µM	> 30 µM	> 30 µM	> 30 µM	> 30 µM	> 30 µM				
COc1cc2nc(N3CCN(C(=O)c4ccco4)CC3)nc(N)c2cc1OC [PRAZOSIN]	8.64 µM	> 30 µM		> 30 µM					> 10 µM	> 30 µM
Nc1ccc2cc3ccc(N)cc3nc2c1 [PROFLAVINE]	10.6 µM		7.27 µM		17.2 µM	> 0.3 µM	> 30 µM	> 30 µM		
Cc1oc(=O)oc1CN1CCN(c2cc3c(cc2F)c(=O)c(C(=O)O)c2n3C(C)S2)CC1 (centres undefined) [PRULIFLOXACIN]	> 30 µM	> 30 µM	> 30 µM	> 30 µM	> 30 µM				> 30 µM	> 30 µM
O=C(Oc1ccc2c(c1)CCCN2C(=O)C(Cl)Cl)c1ccco1 [QUINFAMIDE]	> 30 µM	> 30 µM	> 30 µM	29.4 µM	> 30 µM	> 30 µM		> 30 µM		
CCN1CCCC1CNC(=O)c1cc(S(N)(=O)=O)ccc1OC (centres undefined) [SULPIRIDE]	16.5 µM	> 30 µM	7.52 µM		> 30 µM	> 30 µM	> 30 µM	> 30 µM		
OB1OCc2cc(F)ccc21 [TAVABOROLE]	> 30 µM		> 30 µM		> 30 µM	> 30 µM	> 30 µM	> 30 µM		
CCCCCNC(=N)N/N=C/c1c[nH]c2ccc(OC)cc12 [TEGASEROD]	0.73 µM	> 30 µM	0.92 µM	> 30 µM	0.04 µM	> 3 µM			16 µM	> 30 µM
CC(C)(C)NCC(O)COc1cccc2c1SCCC2 (centres undefined) [TERTATOLOL]	> 30 µM		6.6 µM		0.0569 µM	> 30 µM	> 30 µM	> 30 µM		
CCCCS(=O)(=O)N[C@@H](Cc1ccc(OCCCCC2CCNCC2)cc1)C(=O)O [TIROFIBAN]	> 30 µM	> 30 µM	> 30 µM	> 30 µM	> 30 µM	> 30 µM		> 30 µM		
COC1=C(OC)C(=O)C(C/C=C(\C)CC/C=C(\C)CC/C=C(\C)CC/C=C(\C)CC/C=C(\C)CC/C=C(\C)CC/C=C(\C)CC/C=C(\C)CC/C=C(\C)CCC=C(C)C)=C(C)C1=O [UBIDECARENONE]	> 30 µM	> 30 µM	> 30 µM	> 30 µM	> 30 µM	> 30 µM			> 30 µM	> 30 µM
C=CCCCCCCCCC(=O)O [UNDECYLENIC ACID]	> 30 µM	> 30 µM	> 30 µM	> 30 µM	> 30 µM					
CCOc1ccccc1OCC1CNCCO1 (centres undefined) [VILOXAZINE]	> 30 µM		> 30 µM		9.72 µM	> 30 µM	> 30 µM	> 30 µM	> 10 µM	> 30 µM
